Legend:
[1] = system: CD11b expression in splenic B cells; assay: CD11b expression in stimulated splenic B cells in the presence of TLR and NOD2 inhibitors; type: cell-based, Balb/c mice
TNF-α = assay: Oral adjuvant with OVA as antigen, serum TNF-α ELISA; type: in vivo, C57BL/6 mice; conditions: oral immunization with OVA 1 mg 3 times every 2 weeks, blood on second day after third immunization
Protocol: Serum TNF-α levels were measured in accordance with the protocol of mouse TNF-α ELISA kit (Invitrogen Corporation, BMS607-3).

[2] = system: CD11b expression in splenic naive B cells; assay: Stimulation of splenic naive B cells in vitro, CD11b expression by flow cytometry; type: cell-based, Balb/c mice
Protocol: (§1) Splenic B cells were negatively sorted from the spleens of 8-week-old Balb/c mice using a B cell isolation kit (Miltenyi Biotec B.V. & Co. KG). The splenic B cells (concentration: 5×10^5/ml) were cultured in RPMI1640 medium, and 13 types of independent stimuli were each applied thereto. Anti-mouse IgM (15 μg/ml; Jackson ImmunoResearch Laboratories Inc.) • 2. Anti-mouse-CD40 (HM40-3, 500 ng/ml; manufactured by BioLegend, Inc.) • 3. BAFF (50 ng/ml; BioLegend, Inc.) • 4. Pam3CSK4 (1 μg/ml, InvivoGen) • 5. Poly I:C (25 ng/ml, InvivoGen) • 6. LPS (50 ng/ml, Sigma-Aldrich, Inc.) • 7. Flagellin (20 ng/ml, Sigma-Aldrich, Inc.) • 8. Imiquimod (R837, 5 ng/ml; InvivoGen) • 9. CpG (20 μg/ml, GeneDsign Inc.) • 10. […] Heat-killed S. enterica (10^8 CFU/ml) • 12. Heat-killed B. bifidum (10^7 CFU/ml) • 13. Heat-killed B. breve (10^7 CFU/ml)
For MDP stimulation, purified splenic B cells (5×10^5/ml) were cultured in RPMI1640 medium supplemented with N-acetylmuramyl-L-alanyl-D-isoglutamine hydrate (1 μg/ml; Sigma-Aldrich Inc.).

OVA-specific IgA = assay: Oral immunization with OVA plus adjuvant, ELISA of OVA-specific IgA in stools; type: in vivo, mice; conditions: OVA 1 mg with or without adjuvant on Day 0 and Day 16, stools Day 21
Protocol: Stools were collected on Day 21, and OVA-specific antibody measurement was performed by enzyme-linked immunosorbent assay (ELISA).
The stools were suspended in 10-times weight/volume (w/v) PBS. After performing centrifugation (8,000 g, 15 minutes), the supernatant was collected as a fecal extract. A plate was precoated with 1 mg/ml OVA overnight, followed by blocking with PBS containing 1% (w/v) bovine serum albumin at room temperature for 1 hour. Then, a serially diluted fecal extract was added to the plate, and the plate was incubated at room temperature for 1 hour. Relative avidity of IgA was detected using alkaline phosphatase-labeled goat anti-mouse IgA (manufactured by Southern Biotech). After incubation overnight at 4° C., optical density (OD) values at 405 nm were measured using TriStar Multimode Reader LB 942 (manufactured by Berthold Technologies GmbH & Co. KG).

splenic naive B cells = assay: B cell proliferation / number after in vitro stimulation; type: cell-based, Balb/c mice; conditions: compared to B cells stimulated with anti-IgM, anti-CD40, BAFF, poly I:C, flagellin, imiquimod
Protocol: as §1

itgam (CD11b) = assay: qPCR analysis of itgam in B cells after stimulation; type: cell-based, Balb/c mice
Protocol: About 1×10^4 PP GC B cells (PNA^hiB220^+ cells) and about 1×10^4 non-GC PP B cells (PNA^loB220^+) were each sorted. RNAs were extracted from the isolated cells using NucleoSpin RNA XS (Takara Bio Inc.), and cDNAs were synthesized using GoScript (registered trademark) Reverse Transcriptase (Promega Corporation). Using KAPA SYBR (registered trademark) FAST qPCR Master Mix (2×) Kit (Kapa Biosystems, Inc.), real-time PCR was performed in triplicate on an optical 384-well PCR plate (F. Hoffmann-La Roche Ltd) using LightCycler 480 (F. Hoffmann-La Roche Ltd). Gene expression levels were normalized to the expression level of the housekeeping gene β-actin. The following primers were used for the analysis.
Splenic B cells were negatively sorted from the spleens of 8-week-old Balb/c mice using a B cell isolation kit (Miltenyi Biotec B.V. & Co. KG). The splenic B cells (concentration: 5×10^5/ml) were cultured in RPMI1640 medium, and 13 types of independent stimuli were each applied thereto. Anti-mouse IgM (15 μg/ml; Jackson ImmunoResearch Laboratories Inc.) • 2. Anti-mouse-CD40 (HM40-3, 500 ng/ml; manufactured by BioLegend, Inc.) • 3. BAFF (50 ng/ml; BioLegend, Inc.) • 4. Pam3CSK4 (1 μg/ml, InvivoGen) • 5. Poly I:C (25 ng/ml, InvivoGen) • 6. LPS (50 ng/ml, Sigma-Aldrich, Inc.) • 7. Flagellin (20 ng/ml, Sigma-Aldrich, Inc.) • 8. Imiquimod (R837, 5 ng/ml; InvivoGen) • 9. […]

PP GC = assay: In vivo imaging of transplanted iGB cells induced by pre-stimulation (entry into PP GC); parameters: species or system Balb/c mice; conditions: splenic naive B cells pre-stimulated 3 days, cultured on 40LB cells 4 days, injected i.v.
Protocol: Then, 1×10^5 B220^+ B cells were isolated from the stimulated cells, and subsequently, the cells were seeded onto 40LB feeder cells supplemented with rIL-4 (1 ng/ml; BioLegend, Inc.) to induce iGB cells. As a control group, splenic naive B cells not subjected to stimulation were seeded onto the 40LB feeder cells supplemented with rIL-4 (1 ng/ml; BioLegend, Inc.). After culturing for 4 days, naive B-40LB cells, pam3CSK4-40LB cells, E. coli-40LB, IgM-40LB, and CpG-40LB cells of 3×10^5 iGB cells (B220^+) were isolated, labeled with CellTracker Orange CMTMR fluorescent dye (Invitrogen Corporation), and then separately injected intravenously into mice (Balb/c, 8 to 12 weeks old) together with 10 μg of AF488 anti-mouse MAdCAM-1 (BioLegend, Inc. mAb MECA-367) to identify HEV. Under anesthesia, 1 μg of AF647 anti-mouse IgA (Southern Biotech) was directly injected into the PPs of the same mice into which iGB cells were transferred, to stain the IgA^+ cells for GC identification. Localization of intravenously injected labeled iGB cells was observed using a microscope LSM880 (Carl Zeiss AG) and ZEN 2009 (Carl Zeiss AG) analysis software.

[3] = system: PNAhighB220+ PP GC B cells; assay: Oral administration of heat-killed bacteria or pam3CSK4 to WT mice, PP GC B cells after 2 days; conditions: within 2 days
Protocol: Mice orally administered with 100 μl of PBS were prepared as controls. 2 days later, the PPs of these mice were excised, and B cells in the GCs were analyzed using Spectral Cell Analyzer SA3800 (Sony Biotechnology Inc.), as described above.

CN(CCc1nc2ccccc2n1CC(=O)Nc1ccc2c(c1)CCC2)C(=O)c1ccccc1 [NOD2 inhibitor]
CD11b expression in B cells stimulated with pam3CSK4 and heat-killed E. coli with inhibitor ([1]; NOD2 inhibitor 30 μM): strongly suppressed

CCOC(=O)C1=CCCC[C@H]1S(=O)(=O)Nc1ccc(F)cc1Cl [TLR4 inhibitor]
proportion of CD11b+ B cells stimulated with pam3CSK4 and heat-killed E. coli when inhibitor was used ([1]; inhibitor 1 μM, pam3CSK4 1 μg/ml, heat-killed E. coli 10^7 CFU/ml): did not increase

CpG-ODN1826
serum TNFα concentration (TNF-α): cause increase

N-acetylmuramyl-L-alanyl-D-isoglutamine hydrate [MDP]
induction of CD11b expression by NOD2 ligand ([2]; purified splenic B cells, MDP 1 μg/ml): did not induce

OVA: ovalbumin, orally administered model antigen
OVA-specific IgA in the stools (OVA-specific IgA): did not increase

pam3CSK4
proportion of CD11b+ B cells in stimulated B cells ([2]; splenic naive B cells, 3 days stimulation): 27.6%
number of B cells after 3 days of culturing (splenic naive B cells): significantly increased
expression of itgam (CD11b) in B cells (itgam (CD11b)): increased
entry into GC of iGB cells stimulated in advance, after intravenous injection into mice (PP GC): most of the cells entered GC
OVA-specific IgA in the stools (OVA-specific IgA): increased
number of PP GC B cells [3]: increased
proportion of PP GC B cells [3]: increased

B1: BAFF: B-cell activating factor, mimics interaction with DCs (protein, UniProt Q9WU72 127-309, looked up)
Tumor necrosis factor ligand …: AFQGPEETEQDVDLSAPPAPCLPGCRHSQHDDNGMNLRNIIQDCLQLIADSDTPTIRKGTYTFVPWLLSFKRGNALEEKENKIVVRQTGYFFIYSQVLYTDPIFAMGHVIQRKKVHVFGDELSLVTLFRCIQNMPKTLPNNSCYSAGIARLEEGDEIQLAIPRENAQISRNGDDTFFGALKLL
induction of CD11b expression in naive splenic B cells ([2]; in vitro stimulation, 3 days culture, flow cytometry): did not induce

Reference: US20250127889A1, “IMMUNOSTIMULATORY COMPOSITION” (Reiko SHINKURA, priority 2021, published 2025)
